The source of these data is publication PMC7587356, “High-Throughput Screening for Inhibitors of the SARS-CoV-2 Protease Using a FRET-Biosensor” (Molecules, 2020).

Counter-ions that a name gives are not always drawn. Like-named read-outs stand apart in the source and are kept apart here.

In this experiment the target is SARS-CoV-2 3CLpro (Severe acute respiratory syndrome coronavirus 2, UniProt P0DTD1). In words: biochemical. It is filed as biochemical. Set-up: Replicate_1 / Replicate_2 / mean / mean (LOPAC_screen_w_protease): unit not given here. The settings on record: for inhibition at 5 µM: 4 h.
[1] abbreviates: sheet LOPAC_screen_w_protease, primary screen of LOPAC1280 at 5 µM with protease, mean of the two replicates.
[2] abbreviates: sheet LOPAC_screen_w_protease, primary screen of LOPAC1280 at 5 µM with protease, replicate 1.
Where [3] appears, read: sheet LOPAC_screen_w_protease, primary screen of LOPAC1280 at 5 µM with protease, replicate 2.
Where [4] appears, read: sheet LOPAC_screen_w_protease, LOPAC1280 primary screen at 5 µM, with protease, mean of the two replicates.
The mark [5] stands for this setting: sheet LOPAC_screen_w_protease, LOPAC1280 primary screen at 5 µM, with protease, replicate 1.
The mark [6] stands for this setting: sheet LOPAC_screen_w_protease, LOPAC1280 primary screen at 5 µM, with protease, replicate 2.
[7] abbreviates: sheet LOPAC_screen_w_protease, primary screen with protease, compound at 5 µM, mean of two replicates.
Where [8] appears, read: sheet LOPAC_screen_w_protease, primary screen with protease, compound at 5 µM, replicate 1.
The mark [9] stands for this setting: sheet LOPAC_screen_w_protease, primary screen with protease, compound at 5 µM, replicate 2.
The mark [10] stands for this setting: LOPAC1280 primary screen with protease, 5 µM compound, replicate 1, read-out: Replicate_1 (LOPAC_screen_w_protease).
Where [11] appears, read: LOPAC1280 primary screen with protease, 5 µM compound, replicate 2, read-out: Replicate_2 (LOPAC_screen_w_protease).
Where [12] appears, read: LOPAC1280 primary screen with protease, 5 µM compound, mean of two replicates.
Where [13] appears, read: LOPAC1280 primary screen with protease, 5 µM compound, mean of the two replicates.
[14] abbreviates: LOPAC1280 primary screen with protease, 5 µM compound, replicate 1.
[15] abbreviates: LOPAC1280 primary screen with protease, 5 µM compound, replicate 2.
Where [16] appears, read: sheet LOPAC_screen_w_protease, primary screen with protease, mean of two replicates.
Where [17] appears, read: sheet LOPAC_screen_w_protease, primary screen with protease, replicate 1.
[18] abbreviates: sheet LOPAC_screen_w_protease, primary screen with protease, replicate 2.

As for Ro 8-4304, for the setting “sheet LOPAC_screen_w_protease, primary screen with protease, 5 µM, mean of two replicates”, the mean amounted to 0.161. Under “sheet LOPAC_screen_w_protease, primary screen with protease, 5 µM, replicate 1”, this compound gave a Replicate_1 of -1.418. Moreover, the Replicate_2 (sheet LOPAC_screen_w_protease, primary screen with protease, 5 µM, replicate 2) is given as 1.74.

The compound `O=C([O-])c1cc2cc(Cc3cccnc3)ccc2o1.[Na+]` [Furegrelate sodium] had a mean under setting [1] of 4.074. The Replicate_1 under setting [2] is recorded as 5.241. This compound registered a Replicate_2 under setting [3] of 2.907.

Turning to `O=C(O)C1CCCNC1` (racemic) [(±)-Nipecotic acid], under setting [4], the mean turned out to be 0.4335. For the same compound, under setting [5], the Replicate_1 was determined as 0.981. The compound also yielded a Replicate_2 under setting [6] of -0.114.

Under setting [7], `CC(C)C1C2CCC(C2)C1N.Cl` (stereo not drawn) [AGN 192403 hydrochloride] had a mean of 2.735. The compound further yielded a Replicate_1 under setting [8] of 2.811. Under setting [9], this compound returned a Replicate_2 of 2.66.

On to `Cc1cc(C)c(NC(=O)C[C@H](CC(=O)O)c2cccc3ccccc23)c(C(=O)N2CCC3(CCCC3)CC2)c1` [CR 2945], for which the inhibition at 5 µM by setting is: under setting [10], 3.19%; under setting [11], 0.22%. Besides, the “mean (LOPAC_screen_w_protease)” value under setting [12] turned out to be 1.703.

As to `NC(=O)c1cccc(N)c1` [3-aminobenzamide], the inhibition at 5 µM runs as follows: (sheet LOPAC_screen_w_protease, LOPAC1280 at 5 µM, mean of two replicates, read-out: mean) 1.28%; (sheet LOPAC_screen_w_protease, LOPAC1280 at 5 µM, replicate 1, read-out: Replicate_1) 1.05%; (sheet LOPAC_screen_w_protease, LOPAC1280 at 5 µM, replicate 2, read-out: Replicate_2) 1.51%.

As for `COc1cc(-c2ccc(=O)[nH]n2)ccc1OC(F)F` [Zardaverine], the inhibition at 5 µM was determined as 2.27% under setting [10] and 1.55% under setting [11]. Moreover, the “mean (LOPAC_screen_w_protease)” value under setting [13] was determined as 1.91.

For `COC(=O)[C@@H](N)Cc1ccc(O)c(O)c1.Cl`, the mean under setting [1] amounted to 3.737. Further, the Replicate_1 under setting [2] worked out at 4.528. The compound further gave a Replicate_2 under setting [3] of 2.946.

Turning to `CP(=O)(O)CCCN.Cl` [SKF 97541 hydrochloride], the “mean (LOPAC_screen_w_protease)” value under setting [12] is 1.5203. In addition, the “Replicate_1 (LOPAC_screen_w_protease)” value under setting [14] is given as 0.8621. The “Replicate_2 (LOPAC_screen_w_protease)” value under setting [15] was found to be 2.1785.

Take `Cl.c1ccc2nc(C3=NCCN3)ccc2c1` [BU224 hydrochloride]: the “mean (LOPAC_screen_w_protease)” value under setting [12] came to 1.603. Also, the “Replicate_1 (LOPAC_screen_w_protease)” value under setting [14] is 1.353. Under setting [15], the “Replicate_2 (LOPAC_screen_w_protease)” value was found to be 1.8522.

Turning to `Cc1cccc(C)c1OCC(N)C(C)C.I` (stereo not drawn) [R(-)-Me5], under “sheet LOPAC_screen_w_protease, primary screen at 5 µM, mean of two replicates”, the “mean (LOPAC screen with protease)” value turned out to be 9.695. The “Replicate_1 (LOPAC screen with protease)” value (sheet LOPAC_screen_w_protease, primary screen at 5 µM, replicate 1) came out at 9.8488. Also, the “Replicate_2 (LOPAC screen with protease)” value (sheet LOPAC_screen_w_protease, primary screen at 5 µM, replicate 2) is recorded as 9.541.

`NC(=O)c1cc[n+](CC2=C(C(=O)[O-])N3C(=O)[C@@H](NC(=O)C(c4ccccc4)S(=O)(=O)[O-])[C@H]3SC2)cc1.O.[Na+]` (stereo partly drawn) [Cefsulodin sodium salt hydrate] displayed a mean under setting [7] of 2.816. Also, under setting [8], the Replicate_1 was determined as 2.052. This compound also came in with a Replicate_2 under setting [9] of 3.58.

Compound `NCC(CC(=O)O)c1ccc(Cl)cc1` (racemic) [(±)-Baclofen] displayed a mean under setting [16] of 2.345. Moreover, under setting [17], the Replicate_1 is listed as 1.225. This compound also came in with a Replicate_2 under setting [18] of 3.465.

For the compound `Nc1nc2c(nc(Br)n2[C@@H]2O[C@@H]3COP(=O)([O-])O[C@H]3[C@H]2O)c(=O)[nH]1.[Na+]` [8-Bromo-cGMP sodium], the mean under setting [7] is 2.652. Also, the Replicate_1 under setting [8] came to 4.1. Moreover, the Replicate_2 under setting [9] was determined as 1.204.

The compound `CC(C)(C)NCC(O)c1cc(O)cc(O)c1.CC(C)(C)NCC(O)c1cc(O)cc(O)c1.O=S(=O)(O)O` (stereo not drawn) [Terbutaline hemisulfate] registered a mean (sheet LOPAC_screen_w_protease, LOPAC1280 at 5 µM, mean of two replicates) of 1.161. Where the note is “sheet LOPAC_screen_w_protease, LOPAC1280 at 5 µM, replicate 1”, this compound came in with a Replicate_1 of -0.3816. In addition, the Replicate_2 (sheet LOPAC_screen_w_protease, LOPAC1280 at 5 µM, replicate 2) amounted to 2.703.

Regarding `CC(N)=NCc1cccc(CN)c1.Cl.Cl` [1400W dihydrochloride], the mean under setting [4] is recorded as 0.5066. In addition, the Replicate_1 under setting [5] is recorded as 0.5348. In addition, under setting [6], the Replicate_2 came to 0.4785.

On to `Cc1c(CC(C)(C)C(=O)O)n(Cc2ccc(Cl)cc2)c2ccc(F)cc12` [L-655,240], for which the “mean (LOPAC_screen_w_protease)” value under setting [12] was 1.677. The “Replicate_1 (LOPAC_screen_w_protease)” value under setting [14] is on record as 2.414. Besides, the “Replicate_2 (LOPAC_screen_w_protease)” value under setting [15] turned out to be 0.9392.

Turning to `Cl.Cl.NCCC(=O)NCCc1c[nH]cn1` [Carcinine dihydrochloride], the “mean (LOPAC_screen_w_protease)” value under setting [12] was 1.47. Also, the “Replicate_1 (LOPAC_screen_w_protease)” value under setting [14] is on record as -0.04434. For the same compound, the “Replicate_2 (LOPAC_screen_w_protease)” value under setting [15] is recorded as 2.985.

Regarding `CN1CCC(=C2c3ccccc3CC(=O)c3sccc32)CC1` [Ketotifen fumarate], the inhibition at 5 µM turned out to be 3.16% (sheet LOPAC_screen_w_protease, primary screen of LOPAC1280 at 5 µM with protease, mean of the two replicates, read-out: mean); 4.97% (sheet LOPAC_screen_w_protease, primary screen of LOPAC1280 at 5 µM with protease, replicate 1, read-out: Replicate_1); 1.34% (sheet LOPAC_screen_w_protease, primary screen of LOPAC1280 at 5 µM with protease, replicate 2, read-out: Replicate_2).

Regarding `CCCCN1CCC(COC(=O)c2cc(Cl)c(N)c3c2OCCO3)CC1.Cl` [SB 204070 hydrochloride], the mean under setting [16] was determined as 2.545. The same compound registered a Replicate_1 under setting [17] of 1.507. Besides, the Replicate_2 under setting [18] is listed as 3.5833.

With `CC#C[C@]1(O)CC[C@H]2[C@@H]3CCC4=CC(=O)CCC4=C3[C@@H](c3ccc(N(C)C)cc3)C[C@@]21C` [Mifepristone], the inhibition at 5 µM reads like this: (sheet LOPAC_screen_w_protease, LOPAC1280 primary screen with protease, 5 µM compound, mean of the two replicates, read-out: mean) 4.62%; (sheet LOPAC_screen_w_protease, LOPAC1280 primary screen with protease, 5 µM compound, replicate 1, read-out: Replicate_1) 3.53%; (sheet LOPAC_screen_w_protease, LOPAC1280 primary screen with protease, 5 µM compound, replicate 2, read-out: Replicate_2) 5.7%.

As to `c1ccc(C2CC2)c(OCC2=NCCN2)c1` [Cirazoline hydrochloride], the inhibition at 5 µM reads like this: under setting [10], 2.66%; under setting [11], 1%. In addition, the “mean (LOPAC_screen_w_protease)” value under setting [13] is 1.832.

Turning to `CC1(C)CCC2=C(O1)c1ccccc1C(=O)C2=O` [beta-Lapachone], the inhibition at 5 µM (read-out: Replicate_1) came to 0.593%, the inhibition at 5 µM (read-out: Replicate_2) is 0.52% and the inhibition at 5 µM (read-out: mean) amounted to 0.557%.

Consider `CCOC(=O)c1cnc2c(cnn2CC)c1NN=C(C)C` [Etazolate hydrochloride], for which the inhibition at 5 µM runs as follows: (sheet LOPAC_screen_w_protease, primary screen at 5 µM, mean of two replicates, read-out: mean (LOPAC screen with protease)) 6.78%; (sheet LOPAC_screen_w_protease, primary screen at 5 µM, replicate 1, read-out: Replicate_1 (LOPAC screen with protease)) 5.91%; (sheet LOPAC_screen_w_protease, primary screen at 5 µM, replicate 2, read-out: Replicate_2 (LOPAC screen with protease)) 7.65%.

For `Oc1cc(-c2ccccc2)nc2nc(Cl)ccc12`, the “mean (LOPAC_screen_w_protease)” value under setting [13] came to 1.995. In addition, the “Replicate_1 (LOPAC_screen_w_protease)” value under setting [14] came to 0.8933. Besides, the “Replicate_2 (LOPAC_screen_w_protease)” value under setting [15] is reported as 3.097.

Regarding `O=C(O)CCC/C=C\C[C@@H]1[C@@H](/C=C/[C@H](O)C2Cc3ccccc3C2)[C@@H](F)C[C@@H]1O` [AL-8810], the Replicate_1 is reported as 0.247, the Replicate_2 is 1.148 and the mean worked out at 0.6974.

The compound `CC1=C(CC(=O)O)c2cc(F)ccc2/C1=C\c1ccc(S(C)(=O)=O)cc1` [Sulindac sulfone] gave a mean (sheet LOPAC_screen_w_protease, LOPAC1280 primary screen at 5 µM, with protease, mean of two replicates) of -1.258. Besides, the Replicate_1 under setting [5] is 0.6759. Under setting [6], this compound registered a Replicate_2 of -3.192.

Compound `Br.CCCN(CCC)[C@@H]1CCc2ccc(O)cc2C1` [R-(+)-7-Hydroxy-DPAT hydrobromide] displayed a mean under setting [16] of 2.2447. Under setting [17], this compound yielded a Replicate_1 of 2.253. This compound also returned a Replicate_2 under setting [18] of 2.237.

As for `O=C(O)CNC(=O)C(CS)Cc1ccccc1` (racemic) [DL-Thiorphan], the inhibition at 5 µM is, setting by setting: (sheet LOPAC_screen_w_protease, primary screen with protease, 5 µM, mean of two replicates, read-out: mean) 0.357%; (sheet LOPAC_screen_w_protease, primary screen with protease, 5 µM, replicate 1, read-out: Replicate_1) -0.479%; (sheet LOPAC_screen_w_protease, primary screen with protease, 5 µM, replicate 2, read-out: Replicate_2) 1.19%.

For the compound `Oc1cc2c(cc1O)[C@H]1c3ccccc3CN[C@@H]1CC2` (racemic) [Dihydrexidine hydrochloride], the inhibition at 5 µM amounted to 96.2% (read-out: Replicate_1 (LOPAC screen with protease)), 98.8% (read-out: Replicate_2 (LOPAC screen with protease)) and 97.5% (read-out: mean (LOPAC screen with protease)).
